{"source": "patent US10383926B2", "about": "“Biological markers useful in cancer immunotherapy” (GEMVAX & KAEL CO., LTD., priority 2013, dated 2019)", "key": {"26 cytokines in serum": {"test_system": "26 cytokines in serum", "test": "Luminex multiplex inflammatory cytokine analysis of patient serum (TeloVac trial)", "format": "in vivo, human", "description": "(§1) The TeloVac trial, was initiated in January 2007 comparing combination therapy with Gemcitabine and Capecitabine (GemCap) therapy with concurrent and sequential chemo-immunotherapy using GV1001 in locally advanced and metastatic pancreatic cancer.\n(§2) After this, GV1001 was administered once monthly. GM-CSF was administered separately as an intradermal injection 10-15 minutes before all GV1001 injections at the approximately same site.\nCytokine Results: The Kruskal-Wallis comparison of Arm 2 and Arm 3 baseline (i.e. before treatment) with arm 2 week 7 (GemCap) with Arm 3 week 10 (GemCap and GV1001) serum samples are shown in table 1 below.\nPaired analysis was carried out for: • Arm 2 patients at baseline and following 7 weeks of GemCap treatment. • Arm 3 patients at baseline and following 10 weeks of GemCap and GV1001 treatment."}, "HLA class II molecules": {"test_system": "HLA class II molecules", "conditions": "cited from earlier work"}, "[1]": {"test_system": "locally advanced and metastatic pancreatic cancer", "test": "Survival analysis, TeloVac Phase III trial", "format": "in vivo, human", "conditions": "1062 patients, 52 centres", "description": "The TeloVac trial recruited 1062 patients in 52 centres throughout the UK. […] Importantly, biomarkers for an increased survival in response to the vaccine were identified in a subgroup of patients.\nas §1, §2"}, "[2]": {"test_system": "advanced pancreatic and pulmonary cancer patients", "conditions": "cited from earlier work"}}, "data": [{"sequence": "EARPALLTSRLRFIPK (listed as Homo sapiens) [GV1001, 16-mer peptide, fragment of the human telomerase enzyme]", "values": [{"measurement": "anti-inflammatory response", "setting": "26 cytokines in serum; TeloVac translational research", "result": "significant anti-inflammatory response"}, {"measurement": "regulation of serum levels of eotaxin or MIP1α", "setting": "26 cytokines in serum; human, in vivo", "result": "did not appear that treatment with GV1001 could regulate"}, {"measurement": "change of serum cytokine levels, pre-treatment compared to post treatment", "setting": "26 cytokines in serum; serum, paired analysis", "result": "this decrease was not evident"}, {"measurement": "HLA binding", "setting": "HLA class II molecules", "result": "binds multiple HLA class II molecules"}, {"measurement": "overall survival versus control group receiving chemotherapy", "setting": "[1]", "result": "no significant difference in overall survival"}, {"measurement": "GV1001-specific T-cell responses, subjects", "setting": "[2]", "result": "> 50", "unit": "%"}, {"measurement": "toxicity", "setting": "[2]", "result": "without clinically important toxicity"}]}]}
